Measured values as given in the NIST ThermoML archive (doi:10.1021/acs.jced.5b00474).
Where “and” joins values, the source holds several entries; their conditions need not be identical. Equal entries are not always repeated. ± gives the expanded uncertainty stated by the source.

How the values were obtained:
[1] = xn = mol fraction of the nth substance listed; conditions: 101 kPa, Liquid; for speed of sound: Frequency=3 MHz, Sing-around technique in a fixed-path interferometer; for mass density: Vibrating tube method
[2] = 101 kPa, Liquid; for mass density: Vibrating tube method; for speed of sound: Frequency=3 MHz, Sing-around technique in a fixed-path interferometer

## CC#N [acetonitrile] + O=C1CCCN1
[1]; 298.15 K, x2 = 0
  speed of sound: 1278.9 ± 0.88 m/s
  mass density: 776.609 ± 0.52 kg/m3
[1]; 303.15 K, x2 = 0
  speed of sound: 1259 ± 0.87 m/s
  mass density: 771.183 ± 0.52 kg/m3
[1]; 308.15 K, x2 = 0
  speed of sound: 1239.1 ± 0.87 m/s
  mass density: 765.722 ± 0.52 kg/m3
[1]; 313.15 K, x2 = 0
  speed of sound: 1219.3 ± 0.86 m/s
  mass density: 760.231 ± 0.53 kg/m3
[1]; 318.15 K, x2 = 0
  speed of sound: 1199.5 ± 0.86 m/s
  mass density: 754.709 ± 0.53 kg/m3
[1]; 323.16 K, x2 = 0
  speed of sound: 1179.6 ± 0.85 m/s
  mass density: 749.15 ± 0.53 kg/m3

## CC#N [acetonitrile]
[2]; 293.15 K
  mass density: 781.989 ± 0.52 kg/m3
[2]; 298.15 K
  speed of sound: 1278.9 ± 0.88 m/s and 1278.6 ± 0.88 m/s
  mass density: 776.609 ± 0.52 kg/m3 and 776.616 ± 0.52 kg/m3
[2]; 303.15 K
  speed of sound: 1259 ± 0.88 m/s and 1258.4 ± 0.88 m/s
  mass density: 771.183 ± 0.52 kg/m3 and 771.178 ± 0.52 kg/m3
[2]; 308.15 K
  speed of sound: 1239.1 ± 0.87 m/s and 1238.3 ± 0.87 m/s
  mass density: 765.722 ± 0.52 kg/m3 and 765.719 ± 0.52 kg/m3
[2]; 313.15 K
  speed of sound: 1219.3 ± 0.86 m/s and 1218.2 ± 0.86 m/s
  mass density: 760.223 ± 0.53 kg/m3 and 760.231 ± 0.53 kg/m3
[2]; 318.15 K
  speed of sound: 1199.5 ± 0.86 m/s
  mass density: 754.709 ± 0.53 kg/m3
[2]; 318.16 K
  speed of sound: 1198.1 ± 0.86 m/s
  mass density: 754.702 ± 0.53 kg/m3
[2]; 323.16 K
  speed of sound: 1178 ± 0.86 m/s and 1179.6 ± 0.84 m/s
  mass density: 749.144 ± 0.53 kg/m3 and 749.15 ± 0.53 kg/m3

## CN1CCCC1=O [N-methylpyrrolidone] + ClC(Cl)Cl
[1]; 293.15 K, x1 = 1
  speed of sound: 1564.7 ± 0.94 m/s
  mass density: 1032.51 ± 0.51 kg/m3
[1]; 298.14 K, x1 = 1
  speed of sound: 1545.5 ± 0.94 m/s
  mass density: 1028.07 ± 0.51 kg/m3
[1]; 303.14 K, x1 = 1
  speed of sound: 1526.1 ± 0.93 m/s
  mass density: 1023.61 ± 0.51 kg/m3
[1]; 308.15 K, x1 = 1
  speed of sound: 1506.9 ± 0.93 m/s
  mass density: 1019.15 ± 0.51 kg/m3

## ClC(Cl)Cl [trichloromethane]
[2]; 293.15 K
  speed of sound: 1001.5 ± 0.79 m/s and 1000.9 ± 0.78 m/s
  mass density: 1487.52 ± 0.57 kg/m3 and 1488.55 ± 0.59 kg/m3
[2]; 295.15 K
  mass density: 1483.74 ± 0.57 kg/m3
[2]; 297.15 K
  mass density: 1479.93 ± 0.57 kg/m3
[2]; 298.15 K
  speed of sound: 984.65 ± 0.78 m/s and 984.33 ± 0.78 m/s
  mass density: 1478.02 ± 0.57 kg/m3 and 1479.07 ± 0.55 kg/m3
[2]; 303.15 K
  speed of sound: 967.76 ± 0.78 m/s
  mass density: 1468.47 ± 0.57 kg/m3
[2]; 303.16 K
  speed of sound: 967.53 ± 0.78 m/s
  mass density: 1469.52 ± 0.57 kg/m3
[2]; 308.15 K
  speed of sound: 950.62 ± 0.78 m/s
  mass density: 1459.91 ± 0.57 kg/m3
[2]; 308.16 K
  speed of sound: 950.87 ± 0.77 m/s
  mass density: 1458.85 ± 0.58 kg/m3
